According to BindingDB's records for doi:10.1021/ml300471d (Genfit, 2013):

The molecules below were run against T1, Nuclear receptor ROR-alpha (Homo sapiens, UniProt P35398) (assay: Partial agonist activity at GST-fussed RORalpha (unknown origin) assessed as recruitment of TIF2-BAP protein after overnight incubation by pull down assay).
T1 sequence (P35398 whole entry): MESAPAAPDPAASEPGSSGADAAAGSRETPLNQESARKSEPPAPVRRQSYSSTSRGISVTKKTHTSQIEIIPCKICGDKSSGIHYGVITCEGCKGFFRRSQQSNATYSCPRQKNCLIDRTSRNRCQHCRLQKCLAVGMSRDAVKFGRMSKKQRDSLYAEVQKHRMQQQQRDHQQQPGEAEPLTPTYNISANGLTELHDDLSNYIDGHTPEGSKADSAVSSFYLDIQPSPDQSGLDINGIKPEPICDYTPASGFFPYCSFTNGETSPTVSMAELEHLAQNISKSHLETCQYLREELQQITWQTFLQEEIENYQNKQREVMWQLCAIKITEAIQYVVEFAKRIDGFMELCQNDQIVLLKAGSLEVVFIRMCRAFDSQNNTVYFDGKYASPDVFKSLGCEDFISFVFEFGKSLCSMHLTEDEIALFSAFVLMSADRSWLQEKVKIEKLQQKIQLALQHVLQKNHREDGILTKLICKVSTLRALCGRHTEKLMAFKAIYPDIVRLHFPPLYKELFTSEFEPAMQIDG

EC50, > 30 µM:
COc1cc(C2NC(=O)N=C(C)C2C(=O)OCCSC)ccc1OCc1ccccc1 (stereo unspecified)
COc1cc(C2NC(=O)N=C(C)C2C(=O)OCC(F)(F)F)ccc1OCc1ccccc1 (stereo unspecified)
CC1=NC(=O)NC(c2ccc(OCc3ccccc3)cc2)C1C(=O)OCC(F)(F)F (stereo unspecified)
COc1cc(C2NC(=O)N=C(C)C2C(=O)OCc2ccccc2)ccc1OCc1ccccc1 (stereo unspecified)
CCOC(=O)C1C(CC)=NC(=O)NC1c1ccc(OCc2ccccc2)c(OC)c1 (stereo unspecified)
CCOC(=O)C1C(C)=NC(=O)N(C)C1c1ccc(OCc2ccccc2)c(OC)c1 (stereo unspecified)
